Experimental data from patent US7033829B2, “Method to inhibit cell growth using oligonucleotides” (Trustees of Boston University, priority 2000, dated 2006).
Oligonucleotides are written 5' to 3', each unit as a sugar letter and its base; * is a phosphorothioate linkage, no mark a phosphodiester; rarer units and linkages stand in square brackets, end groups in braces. Plain capitals give the bases only. d = 2'-deoxy (DNA); {P} = phosphate

Experiments:
[1] = tested on: telomere 3′ overhang; assay: 3′ overhang assay in fibroblasts; format: cell-based, human; settings: 40 μM; up to 7 days
[2] = tested on: p53-null osteosarcoma cell line (Saos-2); assay: FACS cell cycle analysis of Saos-2 cells; format: cell-based, human; settings: 40 μM; 48 hours
From the text: In order to determine whether these oligonucleotides similarly affect other human cell types and to investigate the role of p53, we treated a squamous cell carcinoma line (SCC12F) (Rheinwald, J. G., et al., 1983, Human carcinogenesis. pp. 86–96. Academic Press (New York)) that over-expresses a presumptively mutated p53 (Eller, M. S. and B. A. Gilchrest. 2000, Pigment Cell Res. 13: 94–97) and a p53-null osteosarcoma cell line (Saos-2) (Wang, L. H., et al., 1998, Anticancer Res 18: 321–325) with either diluent alone, 11mer-1, 11mer-2 or 11mer-3. Cultures were analyzed by FACS after 48 hours (FIGS. 33A–33H). […] Although the percentage of cells in the S-phase in 11mer-1-treated SCC12F and Saos-2 cells was virtually identical (53±6% and 52±1%, respectively), the G0/G1 and G2/M content of the two cell types were somewhat different. This may reflect differential uptake of the oligonucleotide leading to dose-dependent differences, and/or different pathways acting in these cells to control the cell cycle. No apoptotic response to the oligonucleotides was detected in either cell type within 72 hours.

[3] = tested on: p53-null H1299 lung carcinoma cells; assay: Cell growth of p53-null H1299 cells; format: cell-based, human; settings: 100 μM; days 1–4
From the text: Both the GADD 45 and SDI 1 genes are known to be transcriptionally regulated by the tumor suppressor protein p53. After UV- and γ-irradiation, as well as treatment of cells with DNA-damaging chemical agents, there is a rapid stabilization, phosphorylation and nuclear accumulation of p53 after which this protein binds to specific promoter consensus sequences and modulates the transcription of regulated genes. […] In order to determine whether the inhibitory effect of the dinucleotide pTpT on cell proliferation is mediated in part through p53, the growth response of a p53 null cell line, H1299 lung carcinoma cells, was examined. The p53-null H1299 cells (Sanchez, Y. et al., Science 271:357–360 (1996)) were maintained in DMEM with 10% calf serum. Preconfluent cultures were given fresh medium supplemented with either 100 μM pTpT or diluent. Cells were collected on consecutive days by trypsinization, and counted by Coulter™ counter.

[4] = tested on: UV-damaged CAT reporter plasmid in human fibroblasts; assay: Repair of UV-damaged CAT reporter plasmid in fibroblasts; format: cell-based; settings: 100 μM for five days before transfection; plasmid 100 mJ/cm^2 UVB
From the text: Expression of a UV-damaged reporter plasmid containing the bacterial chloramphenicol acetyltransferase (CAT) gene under the control of SV40 promoter and enhancer sequences was previously shown to detect decreased DNA repair capacity in human lymphocytes associated with aging and early-onset skin cancers. This reporter plasmid was used to measure the DNA repair capacity of normal neonatal human skin-derived fibroblasts and keratinocytes.
Keratinocytes from newborns were established as described (Stanulis-Praeger, B. M. and Gilchrest, B. A., J. Cell. Physiol. 139:116–124 (1989)) using a modification of the method of Rheinwald and Green (Gilchrest, B. A. et al., J. Invest. Dermatol. 101:666–672 (1993)). First-passage keratinocytes were maintained in a non-differentiating low Ca^2+ medium (K-Stim, Collaborative Biomedical Products, Bedford, Mass.). […] CAT enzyme activity was determined using the liquid scintillation counting protocol and components of the assay system kit. […] Protein concentration in the cell extracts was determined by the method of Bradford (Anal. Biochem. 72:248 […]). CAT activity was expressed as c.p.m./100 μg protein and is represented as percent activity of cells transfected with sham-irradiated, non-damaged, plasmid.

Substance	degradation of the telomere 3′ overhang [1]	cells in the S-phase [2]	proliferation compared to diluent-treated controls [3]	CAT activity relative to sham-irradiated transfected controls [4]
pGTTAGGGTTAG (DNA {P}-dGdTdTdAdGdGdGdTdTdAdG) [SEQ ID NO: 5]	did not result in degradation of the telomere 3′ overhang	52±1%	–	–
thymidine dinucleotide [pTpT]	–	–	no inhibition of proliferation	more than 50%
